Measurements published in patent US4551547A, “Biocidal 2-aryl-1, 3-cyclopentanedione enol ester compounds” (Union Carbide Corporation, priority 1983, dated 1985).
In brackets after ≈: the same amount, converted by molar mass.

Columns and labels:
[1] = test system: Mustard; assay: Preliminary herbicide seed germination test (pre-emergent), mustard; type: in vivo, Brassica pincea var. foliosa (Florida broadleaf); parameters: key: 5: no seedling emerged; 4: few seedlings emerged and/or very severe stunting; 3: moderate reduction in stand and/or moderate stunting.; 2: very slight reduction in stand and/or slight stunting; 1: no injury, seedlings appear no different with respect to stand or growth than untreated controls; details: ten to twelve days after application
Description: (§1) Suspensions of the test compounds were prepared by dissolving one gram of compound in 50 milliliters of acetone in which had been dissolved 0.1 gram (10 percent of the weight of compound) of an alkylphenoxyethanol sufactant, as an emulsifying or dispersing agent. The resulting solution was mixed into 160 milliliters of water to give roughly 200 milliliters of a suspension containing the compound in finely divided form. The thus prepared stock suspension contained 0.5 percent by weight of compound. The test concentrations employed in the tests described below were obtained by diluting the stock suspension with water. The test procedures were as follows:
(§2) The following seeds were used in this test:
Mustard--Brassica pincea var. foliosa (Florida broadleaf)
(§3) Two […] mixtures were prepared as follows:
(§4) Each of the above mixtures was rolled separately in 5 gallon containers for approximately one-half hour on ball mill to insure uniform mixing of seeds and soil. For each compound four 3-inch pots were filled with soil to within 11/2 inches of top of pots. To two of these pots were added 70 cc. of Mixture I. To the remaining 2 pots were added 70 cc. of Mixture II. The seed-soil mixture was tamped firmly, and the pots were removed to the greenhouse and watered lightly. About 2 hours after planting, 25 milliliters of the test formulation were added to one pot containing Mixture I and one pot containing Mixture II. An equal volume of a water solution containing acetone and an emulsifier in the same concentration as the herbicidal mixture but without the candidate herbicide was also added to each of the soil-seed mixtures. These pots are used as check or control units. The test compounds were formulated by diluting the stock suspension with water to obtain the desired concentration of the compound in parts per million of the final formulation. Each compound was tested at the same concentration. […] Ratings were made according to the following designations: […]

[2] = test system: Soybean; assay: Post-emergent herbicidal test, soybean; type: in vivo; parameters: key: 1: no perceptible injury; 2: intermediate degrees of injury; 3: intermediate degrees of injury; 4: intermediate degrees of injury; 5: the plant was dead; details: 2500 parts per million, after ten days; for Post-emergent Herbicidal, Soybean: Table II
Description: as §1
(§5) Experiments were also conducted to determine the phytotoxicity of representative compositions with respect to healthy fresh plants. Solutions of the compounds were prepared as described above to provide a concentration of 2500 parts per million of the test compound. The test plants were sprayed in accordance with the procedure described above for the Mite Foliage Spray Test so as to deliver approximately 100 milliliters of test solutions to the leaves of each plant tested. The sprayed plants and controls were set aside for approximately one hour to allow the solutions to dry and were then placed in the greenhouse. After ten days the plants were visually inspected to determine the extent of foliage injury. A rating of 1 indicates no perceptible injury; 5 indicates the plant was dead and ratings of 2, 3 and 4 indicate intermediate degrees of injury based upon the number and extent to which leaves were injured.

[3] = test system: Tomato; assay: Post-emergent herbicidal test, tomato; type: in vivo; parameters: key: 1: no perceptible injury; 2: intermediate degrees of injury; 3: intermediate degrees of injury; 4: intermediate degrees of injury; 5: the plant was dead; details: 2500 parts per million, after ten days; for Post-emergent Herbicidal, Tomato: Table II
Description: as §1, §5

[4] = test system: Corn; assay: Post-emergent herbicidal test, corn; type: in vivo; parameters: key: 1: no perceptible injury; 2: intermediate degrees of injury; 3: intermediate degrees of injury; 4: intermediate degrees of injury; 5: the plant was dead; details: 2500 parts per million, after ten days; for Post-emergent Herbicidal, Corn: Table II
Description: as §1, §5

[5] = test system: Red root pigweed (Amaranthus); assay: Preliminary herbicide seed germination test (pre-emergent), red root pigweed; type: in vivo, Amaranthus retroflexus; parameters: key: 5: no seedling emerged; 4: few seedlings emerged and/or very severe stunting; 3: moderate reduction in stand and/or moderate stunting.; 2: very slight reduction in stand and/or slight stunting; 1: no injury, seedlings appear no different with respect to stand or growth than untreated controls; details: ten to twelve days after application
Description: as §1, §2
Red root pigweed--Amaranthus retroflexus
as §3, §4

[6] = test system: egg of the two-spotted mite; assay: Mite Ovicide Test (eggs); type: in vivo, Tetranychus urticae (Koch); parameters: key to Miticidal, Egg: A: Excellent Control; B: Partial Control; No Control; details: for Miticidal, Egg: Table II, unhatched eggs after four days
Description: Suspensions of the test compounds were prepared by dissolving one gram of compound in 50 milliliters of acetone in which had been dissolved 0.1 gram (10 percent of the weight of compound) of an alkylphenoxyethanol sufactant, as an emulsifying or dispersing agent. The resulting solution was mixed into 160 milliliters of water to give roughly 200 milliliters of a suspension containing the compound in finely divided form. The thus prepared stock suspension contained 0.5 percent by weight of compound. The test concentrations employed in the tests described below were obtained by diluting the stock suspension with water. The test procedures were as follows: The test organism was the egg of the two-spotted mite (Tetranychus urticae (Koch)), as obtained from adults reared on […] bean plants under controlled conditions of 80±5° F. and 50±5 percent relative humidity. Heavily infested leaves from a stock culture were placed on the primary leaves of two bean plants six to eight inches in height growing in a two-and-a-half inch clay pot. Females were allowed to oviposit for a period of 48 hours and the leaves of the infested plants were dipped in a solution containing 800 parts of tetraethyl pyrophosphate per million parts of water in order to destroy the reproductory forms and thus prevent further egg laying. […] The plants were allowed to dry thoroughly. The test compounds were formulated by diluting the stock suspension with water to give a suspension containing varying amounts of test compound per million parts of final formulation. The potted plants (one pot per compound) were placed on a revolving turntable and sprayed with 100-110 milliliters of test compound formulation by use of a DeVilbis spray gun set at 40 spig. air pressure. This application which lasted 30 seconds, was sufficient to wet the plants to run-off. As a control, 100-110 milliliters of a water solution containing acetone and emulsifier in the same concentrations as the test compound formulation, but containing no test compound, were also sprayed on plants infested with eggs. The sprayed plants were held at 80±5° F. and 50±5 percent relative humidity for four days, after which a microscopic examination was made of unhatched (dead) and hatched (living) eggs. In these tests the pesticidal activity of the compounds against mites and mite eggs was rated as follows: Tests were conducted in accordance with the procedures given at pages 17 to 21 supra. The results are expressed in the same manner as used in Table II, except with respect to miticidal activity. For mite adult and mite egg comparison purposes, results are given in parts per million (ppm) required for a 50 percent kill of mites or eggs, respectively.

SMILES: CCCCCCCCCCCCCCCC(=O)OC1=C(c2ccc(Cl)cc2Cl)C(=O)CC1 [Compound 6]
- Pre-emergent Herbicidal, Mustard ([1]; Table II): 1
- Post-emergent Herbicidal, Soybean [2]: 1
- Post-emergent Herbicidal, Tomato [3]: 1
- Post-emergent Herbicidal, Corn [4]: 1
- Pre-emergent Herbicidal, Amaranthus ([5]; Table II): 1
- Miticidal, Egg [6]: B

SMILES: CCCCCCCCCCCCCCCC(=O)OC1=C(c2ccccc2C)C(=O)CC1 [Compound 8]
- Pre-emergent Herbicidal, Mustard ([1]; Table II): 1
- Post-emergent Herbicidal, Soybean [2]: 3
- Post-emergent Herbicidal, Tomato [3]: 1
- Post-emergent Herbicidal, Corn [4]: 3
- Pre-emergent Herbicidal, Amaranthus ([5]; Table II): 3
- Miticidal, Egg [6]: B

SMILES: CCCCC(CC)C(=O)OC1=C(c2ccccc2C)C(=O)C2CCCCC12 (stereo not drawn) [Compound 21, 3-(2-Ethylhexanoyloxy)-2-(2'-methylphenyl)-4,5,6,7,8,9-hexahydro-2-indenone]
- Pre-emergent Herbicidal, Mustard ([1]; Table II): 1
- Post-emergent Herbicidal, Soybean [2]: 2
- Post-emergent Herbicidal, Tomato [3]: 1
- Post-emergent Herbicidal, Corn [4]: 5
- Pre-emergent Herbicidal, Amaranthus ([5]; Table II): 2
- Miticidal, Egg [6]: A

SMILES: CCCCC(CC)C(=O)OC1=C(c2ccc(C)cc2C)C(=O)CC1 (stereo not drawn) [Compound 9, 3-(2-ethylhexanoyloxy)-2-(2', 4'-dimethylphenyl)-2-cyclopentenone]
- Pre-emergent Herbicidal, Mustard ([1]; Table II): 2
- Post-emergent Herbicidal, Soybean [2]: 1
- Post-emergent Herbicidal, Tomato [3]: 1
- Post-emergent Herbicidal, Corn [4]: 3
- Pre-emergent Herbicidal, Amaranthus ([5]; Table II): 2
- Miticidal, Egg [6]: A

SMILES: Cc1ccccc1C1=C(OC(=O)C(C)(C)C)c2ccccc2C1=O [reference compound]
- Pre-emergent Herbicidal, Mustard ([1]; Table III): 2
- Post Emergent Herbicidal, Soybean ([2]; Table III): 0
- Post Emergent Herbicidal, Tomato ([3]; Table III): 1
- Post Emergent Herbicidal, Corn ([4]; Table III): 1
- Pre-emergent Herbicidal, Amaranthus ([5]; Table III): 2
- LC50 ([6]; Tetranychus urticae, Table III, ppm required for a 50 percent kill of eggs, read-out: Miticidal LD50, Egg): 270 µg/mL (≈ 843 µM)

SMILES: CCCCC(CC)C(=O)OC1=C(c2cc(C)ccc2C)C(=O)C2CCCCC12 (stereo not drawn) [Compound 30, 3-(2-ethylhexanoyloxy)-2-(2',5'-dimethylphenyl)-4,5,6,7,8,9-hexahydro-2-indenone]
- Pre-emergent Herbicidal, Mustard ([1]; Table II): 1
- Post-emergent Herbicidal, Soybean [2]: 1
- Post-emergent Herbicidal, Tomato [3]: 1
- Post-emergent Herbicidal, Corn [4]: 2
- Pre-emergent Herbicidal, Amaranthus ([5]; Table II): 1
- Miticidal, Egg [6]: A
